Results on 23 compounds are retold here after patent US20230009626A1 (ICHNOS SCIENCES S.A., priority 2018, published 2023).

The structures appear in SMILES notation.

For this assay, the target named is HPK1 (MAP4K1) (Homo sapiens, UniProt Q92918). Put plainly: FRET Assay for HPK1 (MAP4K1): one step binding assay, displacement of labeled tracer. To be noted: for inhibition at 1 µM: 1 μM compound; for inhibition at 1 µM / inhibition at 10 µM: FRET ratio 665/620, percent of control; for inhibition at 10 µM: 10 μM compound; for IC50: dose response curve, nonlinear regression. The method, boiled down:
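Percent inhibition at 1.0 and 10.0 μM and IC50 by nonlinear regression were derived from loss of FRET signal versus control. The signal runs from Eu-anti-GST antibody (4 nM) bound to 10 nM HPK1 kinase to Alexa Fluor 647 Kinase Tracer 222 (20 nM), added after a 15-min on-ice compound pre-incubation. Binding then proceeded 1 h at room temperature in HEPES pH 7.5 buffer with 10 mM MgCl2, 1 mM EGTA, 0.01% Brij-35 and 3% DMSO.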

Sequence of HPK1 (MAP4K1) (Q92918 whole entry): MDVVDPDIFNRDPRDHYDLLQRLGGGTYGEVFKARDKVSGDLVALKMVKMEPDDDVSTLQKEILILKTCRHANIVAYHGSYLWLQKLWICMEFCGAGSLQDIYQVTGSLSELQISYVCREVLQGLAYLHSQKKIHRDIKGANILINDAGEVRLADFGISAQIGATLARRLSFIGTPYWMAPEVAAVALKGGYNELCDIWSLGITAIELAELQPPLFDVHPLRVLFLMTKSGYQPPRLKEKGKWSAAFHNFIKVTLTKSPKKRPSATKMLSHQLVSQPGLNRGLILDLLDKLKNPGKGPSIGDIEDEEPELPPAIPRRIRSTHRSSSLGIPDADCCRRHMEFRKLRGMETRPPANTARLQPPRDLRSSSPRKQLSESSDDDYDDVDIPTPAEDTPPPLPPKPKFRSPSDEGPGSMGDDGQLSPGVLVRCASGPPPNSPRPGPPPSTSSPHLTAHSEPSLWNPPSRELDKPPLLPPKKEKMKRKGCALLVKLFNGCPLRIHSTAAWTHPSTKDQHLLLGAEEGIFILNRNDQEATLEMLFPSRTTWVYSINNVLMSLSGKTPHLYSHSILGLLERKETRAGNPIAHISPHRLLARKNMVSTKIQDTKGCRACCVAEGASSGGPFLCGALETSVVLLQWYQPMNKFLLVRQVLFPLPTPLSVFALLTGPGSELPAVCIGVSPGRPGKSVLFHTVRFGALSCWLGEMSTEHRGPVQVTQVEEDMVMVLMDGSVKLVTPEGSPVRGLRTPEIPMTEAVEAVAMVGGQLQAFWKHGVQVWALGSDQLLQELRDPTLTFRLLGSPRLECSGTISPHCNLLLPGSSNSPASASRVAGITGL

For `COc1cccc(F)c1-c1cc2c(cn1)NC(=O)/C2=C(/C)Nc1cnn(C2CC2)c1` [Example 30, (Z)-3-(1-((1-Cyclopropyl-1H-pyrazol-4-yl)amino)ethylidene)-5-(2-fluoro-6-methoxyphenyl)-1H-pyrrolo[2,3-c]pyridin-2(3H)-one], the inhibition at 1 µM turned out to be 89.9%, the inhibition at 10 µM amounted to 92.8% and the IC50 was less than 0.05 µM.

Consider `C/C(Nc1ccc(N2CCN(C3COC3)CC2)nc1)=C1/C(=O)Nc2ccc(F)cc21` [Example 5, (Z)-5-Fluoro-3-(1-((6-(4-(oxetan-3-yl)piperazin-1-yl)pyridin-3-yl)amino)ethylidene)indolin-2-one], for which the inhibition at 1 µM was found to be 76.1%, the inhibition at 10 µM amounted to 85.5% and the IC50 fell in the range of 0.1 to 0.5 µM.

As to `C/C(Nc1ccn(C)n1)=C1/C(=O)Nc2cnc(-c3cncc(F)c3C)cc21` [Example 154, (Z)-5-(5-Fluoro-4-methylpyridin-3-yl)-3-(1-((1-methyl-1H-pyrazol-3-yl)amino)ethylidene)-1H-pyrrolo[2,3-c]pyridin-2(3H)-one], the inhibition at 1 µM amounted to 69%, the inhibition at 10 µM was 82.5% and the IC50 was in the range of 0.1 to 0.5 µM.

`C/C(Nc1cc[nH]n1)=C1/C(=O)Nc2cnc(-c3cnccc3C)cc21` [Example 122, (Z)-3-(1-((1H-Pyrazol-3-yl)amino)ethylidene)-5-(4-methylpyridin-3-yl)-1H-pyrrolo[2,3-c]pyridin-2(3H)-one]: the inhibition at 1 µM turned out to be 87.3%, the inhibition at 10 µM came to 92.6% and the IC50 is less than 0.05 µM.

Take `C/C(Nc1cc(C)n([C@H](C)C#N)n1)=C1/C(=O)Nc2cnc(-c3c(C)cccc3F)cc21` [Example 199, (R,Z)-2-(3-((1-(5-(2-Fluoro-6-methylphenyl)-2-oxo-1H-pyrrolo[2,3-c]pyridin-3(2H)-ylidene)ethyl)amino)-5-methyl-1H-pyrazol-1-yl)propanenitrile]: the inhibition at 1 µM turned out to be 71.7% and the IC50 was less than 0.05 µM.

Turning to `CCOc1cccc(F)c1-c1cc2c(cn1)NC(=O)/C2=C(/C)Nc1cnn(CC)c1` [Example 22, (Z)-5-(2-Ethoxy-6-fluorophenyl)-3-(1-((1-ethyl-1H-pyrazol-4-yl)amino)ethylidene)-1H-pyrrolo[2,3-c]pyridin-2(3H)-one], the inhibition at 1 µM was found to be 86.6%, the inhibition at 10 µM came to 90.5% and the IC50 was less than 0.05 µM.

Take `CC(=O)N1CCC(n2ccc(N/C(C)=C3\C(=O)Nc4cnc(-c5cnccc5C)cc43)n2)CC1` [Example 130, (Z)-3-(1-((1-(1-Acetylpiperidin-4-yl)-1H-pyrazol-3-yl)amino)ethylidene)-5-(4-methylpyridin-3-yl)-1H-pyrrolo[2,3-c]pyridin-2(3H)-one]: the inhibition at 1 µM was found to be 79.4%, the inhibition at 10 µM came out at 84.8% and the IC50 was less than 0.05 µM.

`C/C(Nc1ccn(CC(C)(C)O)n1)=C1/C(=O)Nc2cnc(-c3cnccc3C)cc21` [Example 104, (Z)-3-(1-((1-(2-Hydroxy-2-methylpropyl)-1H-pyrazol-3-yl)amino)ethylidene)-5-(4-methylpyridin-3-yl)-1H-pyrrolo[2,3-c]pyridin-2(3H)-one]: the inhibition at 1 µM was 74.6%, the inhibition at 10 µM came to 79.8% and the IC50 is less than 0.05 µM.

On to `CCOc1cccc(F)c1-c1cc2c(cn1)NC(=O)/C2=C(/C)Nc1ccc(N2CCNCC2)nc1` [Example 36, (Z)-5-(2-Ethoxy-6-fluorophenyl)-3-(1-((6-(piperazin-1-yl)pyridin-3-yl)amino)ethylidene)-1H-pyrrolo[2,3-c]pyridin-2(3H)-one], for which the inhibition at 1 µM worked out at 87.8%, the inhibition at 10 µM came to 85.1% and the IC50 was less than 0.05 µM.

For the compound `COc1cccc(F)c1-c1cc2c(cn1)NC(=O)/C2=C(/C)Nc1ccn(CC(C)(C)O)n1` [Example 144, (Z)-5-(2-Fluoro-6-methoxyphenyl)-3-(1-((1-(2-hydroxy-2-methylpropyl)-1H-pyrazol-3-yl)amino)ethylidene)-1H-pyrrolo[2,3-c]pyridin-2(3H)-one], the inhibition at 1 µM was 80.5%, the inhibition at 10 µM stood at 84.6% and the IC50 is less than 0.05 µM.

On to `C/C(Nc1ccn(C)n1)=C1/C(=O)Nc2cnc(-c3c(C)cccc3F)cc21` [Example 121, (Z)-5-(2-Fluoro-6-methylphenyl)-3-(1-((1-methyl-1H-pyrazol-3-yl)amino)ethylidene)-1H-pyrrolo[2,3-c]pyridin-2(3H)-one], for which the inhibition at 1 µM turned out to be 78.9%, the inhibition at 10 µM was found to be 85.7% and the IC50 is less than 0.05 µM.

In the case of `C/C(Nc1ccn(CC(C)(C)O)n1)=C1/C(=O)Nc2cnc(-c3c(C)cccc3F)cc21` [Example 141, (Z)-5-(2-Fluoro-6-methylphenyl)-3-(1-((1-(2-hydroxy-2-methylpropyl)-1H-pyrazol-3-yl)amino)ethylidene)-1H-pyrrolo[2,3-c]pyridin-2(3H)-one], the inhibition at 1 µM is 80%, the inhibition at 10 µM came out at 85.9% and the IC50 was 0.05 to 0.1 µM.

With `COc1cccc(F)c1-c1ccc2c(n1)/C(=C(\C)Nc1cnn(C)c1)C(=O)N2` [Example 43, (Z)-5-(2-Fluoro-6-methoxyphenyl)-3-(1-((1-methyl-1H-pyrazol-4-yl)amino)ethylidene)-1H-pyrrolo[3,2-b]pyridin-2(3H)-one], the inhibition at 1 µM amounted to 86.2%, the inhibition at 10 µM is 89.2% and the IC50 is less than 0.05 µM.

On to `C/C(Nc1cc(C)n(C[C@H](C)O)n1)=C1/C(=O)Nc2cnc(-c3c(C)cccc3F)cc21` [Example 209, (S,Z)-5-(2-Fluoro-6-methylphenyl)-3-(1-((1-(2-hydroxypropyl)-5-methyl-1H-pyrazol-3-yl)amino)ethylidene)-1H-pyrrolo[2,3-c]pyridin-2(3H)-one], for which the inhibition at 1 µM was 75.7%, the inhibition at 10 µM was determined as 78.9% and the IC50 is less than 0.05 µM.

With `C/C(Nc1cc(C)n(CC(C)(C)O)n1)=C1/C(=O)Nc2cnc(-c3c(C)cccc3F)cc21` [Example 200, (Z)-5-(2-Fluoro-6-methylphenyl)-3-(1-((1-(2-hydroxy-2-methylpropyl)-5-methyl-1H-pyrazol-3-yl)amino)ethylidene)-1H-pyrrolo[2,3-c]pyridin-2(3H)-one], the inhibition at 1 µM is 70.7%, the inhibition at 10 µM came out at 71.9% and the IC50 was less than 0.05 µM.

On to `COc1cccc(F)c1-c1cc2c(cn1)NC(=O)/C2=C(/C)Nc1ccn(C(C)(C)C#N)n1` [Example 93, (Z)-2-(3-((1-(5-(2-Fluoro-6-methoxyphenyl)-2-oxo-1H-pyrrolo[2,3-c]pyridin-3(2H)-ylidene)ethyl)amino)-1H-pyrazol-1-yl)-2-methylpropanenitrile], for which the inhibition at 1 µM was 73.8%, the inhibition at 10 µM stood at 76.4% and the IC50 was less than 0.05 µM.

In the case of `Cc1ccncc1-c1cc2c(cn1)NC(=O)/C2=C(\Nc1cnn(C)c1)C(C)C` [Example 48, (Z)-3-(2-Methyl-1-((1-methyl-1H-pyrazol-4-yl)amino)propylidene)-5-(4-methylpyridin-3-yl)-1H-pyrrolo[2,3-c]pyridin-2(3H)-one], the inhibition at 1 µM stood at 77.2%, the inhibition at 10 µM was determined as 84.8% and the IC50 fell in the range of 0.05 to 0.1 µM.

For `C/C(Nc1cc(C(C)(C)O)n(C)n1)=C1/C(=O)Nc2cnc(-c3cnccc3C)cc21` [Example 150, (Z)-3-(1-((5-(2-Hydroxypropan-2-yl)-1-methyl-1H-pyrazol-3-yl)amino)ethylidene)-5-(4-methylpyridin-3-yl)-1H-pyrrolo[2,3-c]pyridin-2(3H)-one], the inhibition at 1 µM stood at 86.7%, the inhibition at 10 µM came out at 86.1% and the IC50 was less than 0.05 µM.

With `C/C(Nc1cc(C)[nH]n1)=C1/C(=O)Nc2cnc(-c3cnccc3C)cc21` [Example 179, (Z)-3-(1-((5-Methyl-1H-pyrazol-3-yl)amino)ethylidene)-5-(4-methylpyridin-3-yl)-1H-pyrrolo[2,3-c]pyridin-2(3H)-one], the inhibition at 1 µM is 66.9%, the inhibition at 10 µM stood at 77.6% and the IC50 is less than 0.05 µM.

Consider `C/C(Nc1cnn(C(C)(C)C#N)c1)=C1/C(=O)Nc2ccc(-c3cnccc3C)nc21` [Example 105, (Z)-2-Methyl-2-(4-((1-(5-(4-methylpyridin-3-yl)-2-oxo-1H-pyrrolo[3,2-b]pyridin-3(2H)-ylidene)ethyl)amino)-1H-pyrazol-1-yl)propanenitrile], for which the inhibition at 1 µM is 79.8%, the inhibition at 10 µM turned out to be 84.4% and the IC50 is less than 0.05 µM.

Regarding `C/C(Nc1ccn([C@H](C)CO)n1)=C1/C(=O)Nc2cnc(-c3cnccc3C)cc21` [Example 137, (R,Z)-3-(1-((1-(1-Hydroxypropan-2-yl)-1H-pyrazol-3-yl)amino)ethylidene)-5-(4-methylpyridin-3-yl)-1H-pyrrolo[2,3-c]pyridin-2(3H)-one], the inhibition at 1 µM amounted to 80.7%, the inhibition at 10 µM came out at 80.2% and the IC50 was less than 0.05 µM.

`C/C(Nc1cnn(C(C)(C)C#N)c1)=C1/C(=O)Nc2cnc(-c3c(C)noc3C)cc21` [Example 88, (Z)-2-(4-((1-(5-(3,5-Dimethylisoxazol-4-yl)-2-oxo-1H-pyrrolo[2,3-c]pyridin-3(2H)-ylidene)ethyl)amino)-1H-pyrazol-1-yl)-2-methylpropanenitrile]: the inhibition at 1 µM was determined as 74.3%, the inhibition at 10 µM stood at 87.6% and the IC50 lay within 0.1 to 0.5 µM.

For `C/C(Nc1ccn(CC[C@H](C)O)n1)=C1/C(=O)Nc2cnc(-c3cnccc3C)cc21` [Example 196, (S,Z)-3-(1-((1-(3-hydroxybutyl)-1H-pyrazol-3-yl)amino)ethylidene)-5-(4-methylpyridin-3-yl)-1H-pyrrolo[2,3-c]pyridin-2(3H)-one], the inhibition at 1 µM was 65%, the inhibition at 10 µM came out at 66.3% and the IC50 is less than 0.05 µM.
